Test results from US9409906B2, “Pyrimido[4,5-B]indole derivatives and use thereof in the expansion of hematopoietic stem cells” (UNIVERSITÉ DE MONTRÉAL, priority 2012, dated 2016).

How the values were obtained:
CD34+CD45RA− cells = assay: Dose-response assay: 50% increase in CD34+CD45RA− cell count vs vehicle (EC50); assay type: cell-based, human; conditions: concentration giving 50% increase in CD34+CD45RA− cell count vs vehicle (DMSO), dose-response 1 nM to 5000 nM; for EC50: Homo sapiens, read-out: Biological data (EC50)*
Description: The following biological assays were used to assess the effect of the compounds of the invention on hematopoietic stem cell expansion. Culture medium: The culture medium used consisted of serum-free medium supplemented with the following recombinant cytokines: interleukin-6, thrombopoietin, Flt-3 ligand, and stem cell factor, each at a final concentration of 100 ng/ml, in the presence of vehicle (DMSO), positive control (SR1), or compound of the invention or a combination of compounds.

[1] = system: CD34+ CB cells transplanted in NSG mice; assay: Engraftment of cultured CD34+ cord blood cells in NSG mice (FIG. 7); conditions: outcome of 5,000 CD34+ CB cells, 7 days culture; 8-weeks post transplantation (FIG. 7A)
From the text: These experiments were done in short term cultures i.e. 7 days.

[2] = system: Mobilized peripheral blood CD34(+) cells; assay: Growth factor (Flt3, SCF, TPO) requirement / mitogen test (FIG. 3); assay type: cell-based, human
Description: FIG. 3: Flt3, SCF, and TPO are required for compound 1 mediated stem cell expansion. Mobilized peripheral blood CD34(+) cells were cultured for 7 days in the presence or absence of the growth factors (Flt3+SCF+TPO).
This indicate that akin to SR1, Compound 1's effect on maintenance of primitive HSC phenotype ex vivo is not due to a mitogenic effect on this population but rather on the prevention of cell differentiation.

[3] = system: CD34+ mobilized peripheral blood (mPB) cells; assay: Ex vivo expansion of mobilized peripheral blood-derived CD34+ and CD34+CD45RA− cells (FIG. 5A); assay type: cell-based, human; conditions: 12-days culture
From the text: FIG. 5: A) Compound 1 expands mobilized peripheral blood-derived CD34+ and CD34+CD45RA− cell populations ex vivo. […] This observation was enhanced with the co-treatment with SR1.
[…]. The level of expansion is the same whether cultures are initiated with Compound 1, SR1, Compound 1+SR1, or control DMSO. […] […].

[4] = system: CD34+ mPB cells transplanted in NSG mice; assay: Engraftment of cultured CD34+ mPB cells in NSG mice; conditions: cells cultured ten days; outcome of 50,000 and 500,000 cells; 13 week post-transplantation
[5] = system: CD34+CD45RA− cord blood cells; assay: Ex vivo expansion of cord blood-derived CD34+ and CD34+CD45RA− cells (FIG. 5B, 5C); assay type: cell-based, human; conditions: cord blood
[6] = system: CD34+ mobilized peripheral blood cells; assay: FACS analysis of differentiation of CD34+ mobilized peripheral blood cells (FIG. 4A); assay type: cell-based, human; conditions: 7 day expansion, optimal levels, vs DMSO control
From the text: FIG. 4A illustrates the impact of Compound 1 on mobilized peripheral blood cell differentiation. Following a 7 day expansion, a relatively pure (>85% CD34^+) population of mobilized peripheral blood was exposed to control the (DMSO) or Compound 1 or SR1 or Compound 1+SR1.

## COC(=O)c1ccc2c(c1)[nH]c1nc(Cc3cccc(C(O)C(F)(F)F)c3)nc(NCCCN3CCCCC3)c12 (stereo not shown) [Compound 34, methyl 4-((3-(piperidin-1-yl)propyl)amino)-2-(3-(2,2,2-trifluoro-1-hydroxyethyl)benzyl)-9H-pyrimido[4,5-b]indole-7-carboxylate]
CD34+CD45RA− cells
  EC50: < 100 nM

## COC(=O)c1ccc2c(c1)[nH]c1nc(Cc3ccccc3)nc(NCCCN(C)CCCNc3nc(Cc4ccccc4)nc4[nH]c5cc(C(=O)OC)ccc5c34)c12 [Compound 51, dimethyl 4,4′-(((methylazanediyl)bis(propane-3,1-diyl))bis(azanediyl))bis(2-benzyl-9H-pyrimido[4,5-b]indole-7-carboxylate)]
CD34+CD45RA− cells
  EC50: < 100 nM

## COC(=O)c1ccc2c(c1)[nH]c1nc(Cc3cccc(C4(C(F)(F)F)N=N4)c3)nc(NCCCN(C)CCCNC(=O)CCCC[C@@H]3SC[C@@H]4NC(=O)N[C@@H]43)c12 [Compound 53, methyl 4-((3-(methyl(3-(5-((3aS,4S,6aR)-2-oxohexahydro-1H-thieno[3,4-d]imidazol-4-yl)pentanamido)propyl)amino)propyl)amino)-2-(3-(3-(trifluoromethyl)-3H-diazirin-3-yl)benzyl)-9H-pyrimido[4,5-b]indole-7-carboxylate]
CD34+CD45RA− cells
  Biological data (EC50)*: F (F=compound showed >1.3 fold expansion)

## CC(C)n1cnc2c(NCCc3ccc(O)cc3)nc(-c3csc4ccccc34)nc21 [SR1, StemRegenin1, reference compound]
[1]
  human CD45+ engraftment / reconstitution activity: human CD45+ engraftment
[2]
  induction of cell proliferation in the absence of growth factors (Flt3, TPO, SCF): not able to induce cell proliferation
[3]
  total cell count increase above the input: about 20 fold
[4]
  human hematopoietic engraftment (human CD45+ cells in BM): consistently better than DMSO
[5]; 12-days
  expansion of CD34+CD45RA− cells: less than 20 fold
[5]; twelve days
  total cell expansion vs DMSO (control): the same
[6]
  loss of CD34 cell surface expression: partly abrogated
